Data reported in the supplement of paper PMC10307832.

Legend:
Experiment in all cases: relative viability (nuclei count vs DMSO), 5 days (fraction); higher = more cells survive
Seliciclib + Trametinib = compound: CC[C@H](CO)Nc1nc(NCc2ccccc2)c2ncn(C(C)C)c2n1 [Seliciclib] + CC(=O)Nc1cccc(-n2c(=O)n(C3CC3)c(=O)c3c(Nc4ccc(I)cc4F)n(C)c(=O)c(C)c32)c1 [Trametinib] (partner 0.02 µM)
Procedure, shortened: (§1)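 Relative viability is defined as nuclei in treated wells over nuclei in vehicle wells. Duplicate plates were run and medians reported. Lung cancer cell lines in 1536-well plates were dosed by pin tool one day after seeding, with one drug or with a fixed anchor-drug dose plus five library-drug doses (not always all listed) in √10 steps, and nuclei were counted after 5 days.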

Seliciclib + OSI-027 = compound: CC[C@H](CO)Nc1nc(NCc2ccccc2)c2ncn(C(C)C)c2n1 [Seliciclib] + COc1cccc2cc(-c3nc([C@H]4CC[C@H](C(=O)O)CC4)n4ncnc(N)c34)[nH]c12 [OSI-027] (partner 0.5 µM)
Procedure, shortened: as §1

Seliciclib + Crizotinib = compound: CC[C@H](CO)Nc1nc(NCc2ccccc2)c2ncn(C(C)C)c2n1 [Seliciclib] + C[C@@H](Oc1cc(-c2cnn(C3CCNCC3)c2)cnc1N)c1c(Cl)ccc(F)c1Cl [Crizotinib] (partner 1 µM)
Procedure, shortened: as §1

Seliciclib + Phenformin = compound: CC[C@H](CO)Nc1nc(NCc2ccccc2)c2ncn(C(C)C)c2n1 [Seliciclib] + N=C(N)NC(=N)NCCc1ccccc1 [Phenformin] (partner 250 µM)
Procedure, shortened: as §1

Row | Cell Line | relative viability (Seliciclib + Trametinib; first compound 0.08 µM) | relative viability (Seliciclib + Trametinib; first compound 0.253 µM) | relative viability (Seliciclib + Trametinib; first compound 0.8 µM) | relative viability (Seliciclib + Trametinib; first compound 2.53 µM) | relative viability (Seliciclib + Trametinib; first compound 8 µM) | relative viability (Seliciclib + OSI-027; first compound 0.08 µM) | relative viability (Seliciclib + OSI-027; first compound 0.253 µM) | relative viability (Seliciclib + OSI-027; first compound 0.8 µM) | relative viability (Seliciclib + OSI-027; first compound 2.53 µM) | relative viability (Seliciclib + OSI-027; first compound 8 µM) | relative viability (Seliciclib + Crizotinib; first compound 0.08 µM) | relative viability (Seliciclib + Crizotinib; first compound 0.253 µM) | relative viability (Seliciclib + Crizotinib; first compound 0.8 µM) | relative viability (Seliciclib + Crizotinib; first compound 2.53 µM) | relative viability (Seliciclib + Crizotinib; first compound 8 µM) | relative viability (Seliciclib + Phenformin; first compound 0.08 µM) | relative viability (Seliciclib + Phenformin; first compound 0.253 µM) | relative viability (Seliciclib + Phenformin; first compound 0.8 µM) | relative viability (Seliciclib + Phenformin; first compound 2.53 µM) | relative viability (Seliciclib + Phenformin; first compound 8 µM)
1 | NCI-H358 | 0.137 | 0.124 | 0.143 | 0.104 | 0.0859 | 0.79 | 0.501 | 0.652 | 0.58 | 0.448 | 0.54 | 0.709 | 0.546 | 0.544 | 0.246 | 0.347 | 0.392 | 0.248 | 0.241 | 0.209
2 | NCI-H441 | 0.563 | 0.552 | 0.557 | 0.241 | 0.454 | 0.794 | 0.582 | 0.645 | 0.335 | 0.423 | 0.896 | 0.631 | 0.833 | 0.66 | 0.519 | 0.836 | 0.804 | 0.805 | 0.459 | 0.632
3 | NCI-H460 | 0.176 | 0.137 | 0.132 | 0.115 | 0.102 | 0.706 | 0.601 | 0.672 | 0.563 | 0.561 | 0.787 | 0.821 | 0.837 | 1.36 | 0.722 | 0.55 | 0.526 | 0.515 | 0.567 | 0.469
4 | NCI-H520 | 0.617 | 0.411 | 0.669 | 0.599 | 0.625 | 0.275 | – | 0.324 | 0.277 | 0.228 | 0.85 | 0.552 | 0.638 | 0.921 | 0.589 | 0.61 | – | 0.571 | 0.634 | 0.38
5 | NCI-H596 | 0.814 | – | 0.75 | 0.837 | 0.58 | 0.784 | – | 0.607 | 0.812 | 0.657 | 0.959 | 0.759 | 0.981 | 1.05 | 0.988 | 0.66 | – | 0.83 | 0.784 | 0.595
6 | NCI-H647 | 0.392 | 0.37 | 0.427 | 0.512 | 0.508 | 0.616 | – | 0.652 | 0.552 | 0.534 | 1.07 | 1.01 | 1.04 | 1.29 | 0.852 | 0.515 | – | 0.537 | 0.603 | 0.409
7 | NCI-H650 | 0.96 | 1.08 | 1.01 | 0.863 | 0.877 | 0.539 | 0.497 | 0.651 | 0.313 | 0.495 | 0.65 | 0.713 | 0.84 | – | 0.543 | 0.48 | 0.467 | 0.532 | 0.257 | 0.46
8 | NCI-H661 | 0.59 | 0.581 | 0.5 | 0.491 | 0.416 | 0.757 | 0.741 | 0.687 | 0.65 | 0.637 | 0.98 | 1.12 | 0.939 | – | 0.894 | 0.274 | 0.26 | 0.297 | 0.264 | 0.304
9 | NCI-H727 | 0.388 | 0.443 | 0.399 | 0.377 | 0.335 | 0.792 | 0.687 | 0.465 | 0.338 | 0.636 | 0.813 | 0.882 | 0.777 | 0.829 | 0.823 | 0.562 | 0.488 | 0.561 | 0.373 | 0.472
10 | NCI-H838 | 0.516 | 0.485 | 0.523 | 0.449 | 0.451 | 0.425 | 0.44 | 0.325 | 0.247 | 0.292 | 0.806 | 0.766 | 0.841 | 0.936 | 0.673 | 0.59 | 0.559 | 0.561 | 0.461 | 0.329
11 | NCI-H1355 | 0.391 | 0.336 | 0.477 | 0.474 | 0.415 | 0.462 | 0.303 | 0.372 | 0.288 | 0.39 | 1.01 | 1.05 | 1.13 | 1.16 | 0.998 | 0.436 | 0.443 | 0.433 | 0.423 | 0.435
12 | NCI-H1437 | 0.5 | 0.551 | 0.562 | 0.398 | 0.401 | 0.844 | 0.877 | 0.99 | 0.52 | 0.787 | 0.861 | 0.916 | 0.951 | 0.97 | 0.834 | 0.347 | 0.353 | 0.291 | 0.241 | 0.262
13 | NCI-H1650 | 0.572 | 0.69 | 0.471 | 0.433 | 0.422 | 0.842 | 0.518 | 0.641 | 0.487 | 0.443 | 0.885 | 1.12 | 0.924 | 0.847 | 0.607 | 0.436 | 0.525 | 0.462 | 0.424 | 0.264
14 | NCI-H1651 | 0.732 | 0.783 | 0.796 | 0.793 | 0.796 | 0.654 | 0.815 | 0.651 | 0.542 | 0.543 | 0.873 | 0.861 | 0.831 | 0.814 | 0.82 | 0.339 | 0.366 | 0.317 | 0.277 | 0.249
15 | NCI-H1666 | 0.829 | 0.761 | 0.792 | 0.849 | 0.75 | 0.817 | 0.899 | 0.939 | 0.622 | 0.734 | 1.08 | 0.953 | 1.05 | 0.852 | 0.46 | 0.59 | 0.589 | 0.556 | 0.549 | 0.516
16 | NCI-H1734 | 0.717 | 0.528 | 0.677 | 0.664 | 0.572 | 0.513 | 0.413 | 0.565 | 0.435 | 0.452 | 0.63 | 0.576 | 0.622 | 0.683 | 0.533 | 0.385 | 0.35 | 0.311 | 0.334 | 0.356
17 | NCI-H1755 | 0.804 | 0.658 | 0.757 | 0.776 | 0.71 | 0.633 | 0.714 | 0.738 | 0.515 | 0.691 | 0.84 | 0.85 | 0.84 | 0.973 | 0.854 | 0.601 | 0.6 | 0.586 | 0.584 | 0.599
18 | NCI-H1792 | 0.353 | 0.329 | 0.408 | – | 0.372 | 0.67 | 0.769 | 0.73 | – | 0.64 | 0.837 | 1.01 | 0.82 | 0.873 | 0.919 | 0.421 | 0.308 | 0.306 | – | 0.329
19 | NCI-H1915 | 0.315 | 0.277 | 0.307 | 0.292 | 0.288 | 0.643 | 0.636 | 0.495 | 0.536 | 0.423 | 0.922 | 0.964 | 0.88 | 0.816 | 0.757 | 0.448 | 0.403 | 0.376 | 0.373 | 0.328
20 | NCI-H1944 | 0.399 | 0.277 | 0.428 | 0.48 | 0.368 | 0.442 | 0.343 | 0.376 | 0.26 | 0.341 | 1.09 | 1.16 | 0.931 | 0.996 | 0.714 | 0.188 | 0.22 | 0.168 | 0.178 | 0.168
21 | NCI-H1975 | 0.383 | 0.215 | 0.439 | 0.266 | 0.334 | 0.845 | 0.545 | 0.839 | 0.525 | 0.624 | 0.966 | 0.984 | 0.917 | 0.924 | 0.662 | 0.386 | 0.335 | 0.392 | 0.312 | 0.236
22 | NCI-H1993 | 0.649 | 0.543 | 0.47 | 0.508 | 0.43 | 0.574 | 0.529 | 0.521 | 0.556 | 0.518 | 0.769 | 0.803 | 0.768 | 0.849 | 0.727 | 0.551 | 0.54 | 0.496 | 0.474 | 0.456
23 | NCI-H2009 | 0.278 | 0.208 | 0.264 | 0.262 | 0.296 | 0.704 | 0.778 | 0.739 | 0.407 | 0.495 | 1.04 | 0.963 | 1.06 | 0.987 | 0.989 | 0.487 | 0.599 | 0.498 | 0.474 | 0.493
24 | NCI-H2023 | 0.542 | 0.457 | 0.501 | 0.447 | 0.264 | 0.418 | 0.304 | 0.396 | 0.188 | 0.323 | 0.554 | 0.578 | 0.682 | 0.595 | 0.555 | 0.41 | 0.417 | 0.411 | 0.468 | 0.312
25 | NCI-H2085 | 0.509 | 0.475 | 0.513 | 0.41 | 0.343 | 0.803 | 0.679 | 0.59 | 0.685 | 0.577 | 0.866 | 0.767 | 0.9 | 0.862 | 0.706 | 0.714 | 0.658 | 0.692 | 0.71 | 0.611
26 | NCI-H2087 | 0.202 | 0.203 | 0.217 | 0.145 | 0.196 | 0.617 | 0.533 | 0.497 | 0.273 | 0.432 | 0.909 | 0.833 | 0.956 | 0.828 | 0.846 | 0.537 | 0.495 | 0.411 | 0.41 | 0.385
27 | NCI-H2126 | 0.581 | 0.54 | 0.623 | 0.525 | 0.449 | 0.75 | 0.715 | 0.649 | 0.354 | 0.515 | 0.988 | 0.979 | 0.965 | 0.992 | 0.861 | 0.518 | 0.489 | 0.518 | 0.359 | 0.467
